PMC8025584, “Identification of multipotent drugs for COVID-19 therapeutics with the evaluation of their SARS-CoV2 inhibitory activity” (Computational and Structural Biotechnology Journal, 2021)

What was measured:
[1] = in vitro; conditions: monkey
[2] = tested on: SARS-CoV2 virus (IND/ILS-01/2020); assay: Drug assay: viral load by real-time RT-PCR in SARS-CoV2 infected Vero E6 cells; format: cell-based; conditions: Vero E6, 0.1 MOI, 24 h treatment, cell-associated viral RNA by RT-PCR
[3] = parameters: method as in PMID 26506265, PMID 24466249, PMID 22454559; conditions: cited from earlier work
[4] = tested on: SARS-CoV2; parameters: method as in PMID 33330842; conditions: cited from earlier work
[5] = tested on: Vero E6 cells; conditions: Vero E6, MTT, 0.01-20 µM
[6] = tested on: differentially expressed human proteins in COVID-19; conditions: gene TNF; drug-gene interaction listed in DGIdb export; ref DGIdb; cited from earlier work
[7] = Severe acute respiratory syndrome coronavirus 2, Vero C1008

Molecule	CC50 [1] [µM]	IC50 [2, 7] [µM]	can cross blood brain barrier [3]	interaction_types [6]	also measured
Cc1ccc(-c2cc(C(F)(F)F)nn2-c2ccc(S(N)(=O)=O)cc2)cc1 [Celecoxib]	> 20	3.25	can cross blood brain barrier	–	–
CCN(CCO)CCCC(C)Nc1ccnc2cc(Cl)ccc12 (centres unmarked) [Hydroxychloroquine]	> 20	5	–	–	–
OC(c1cc(C(F)(F)F)nc2c(C(F)(F)F)cccc12)C1CCCCN1 (centres unmarked) [Mefloquine]	> 20	0.37	–	–	–
CC(C)(O)c1ccccc1CC[C@@H](SCC1(CC(=O)O)CC1)c1cccc(/C=C/c2ccc3ccc(Cl)cc3n2)c1 [Montelukast]	> 20	–	can cross blood brain barrier	–	–
OC(CNCC(O)C1CCc2cc(F)ccc2O1)C1CCc2cc(F)ccc2O1 (centres unmarked) [Nebivolol]	> 20	5.21	can cross blood brain barrier	–	inhibition of SARS-CoV2 [4]: submicromolar range
Capreomycin	–	–	–	–	IC50 [2]: 1 µM; CC50 [5]: > 20 µM
Ivermectin	–	–	–	–	IC50 [2]: 5.54 µM; CC50 [5]: 15 µM
ONERCEPT (protein, UniProt P19438 30-211, looked up, extracellular domain) extracellular domain: LVPHLGDREKRDSVCPQGKYIHPQNNSICCTKCHKGTYLYNDCPGPGQDTDCRECESGSFTASENHLRHCLSCSKCRKEMGQVEISSCTVDRDTVCGCRKNQYRHYWSENLFQCFNCSLCLNGTVHLSCQEKQNTVCTCHAGFFLRENECVSCSNCKKSLECTKLCLPQIENVKGTEDSGTT	–	–	–	inhibitor	–
PEGSUNERCEPT (protein, UniProt P19438 30-211, looked up, extracellular domain PEGylated) extracellular domain: LVPHLGDREKRDSVCPQGKYIHPQNNSICCTKCHKGTYLYNDCPGPGQDTDCRECESGSFTASENHLRHCLSCSKCRKEMGQVEISSCTVDRDTVCGCRKNQYRHYWSENLFQCFNCSLCLNGTVHLSCQEKQNTVCTCHAGFFLRENECVSCSNCKKSLECTKLCLPQIENVKGTEDSGTT	–	–	–	inhibitor	–
CERTOLIZUMAB PEGOL (antibody, chains of the INN, looked up, V domains shown, Fab' PEGylated) VH: EVQLVESGGGLVQPGGSLRLSCAASGYVFTDYGMNWVRQAPGKGLEWMGWINTYIGEPIYADSVKGRFTFSLDTSKSTAYLQMNSLRAEDTAVYYCARGYRSYAMDYWGQGTLVTVSS VL: DIQMTQSPSSLSASVGDRVTITCKASQNVGTNVAWYQQKPGKAPKALIYSASFLYSGVPYRFSGSGSGTDFTLTISSLQPEDFATYYCQQYNIYPLTFGQGTKVEIK	–	–	–	inhibitor	–
